Laboratory results from patent US12263248B2, “Compounds and compositions for intracellular delivery of therapeutic agents” (ModernaTX, Inc., priority 2018, dated 2025).

Key:
[1] = Encapsulation efficiency of RNA (QUANT-IT RIBOGREEN RNA assay); assay type: physicochemical; details: Table 1A
Description: For nanoparticle compositions including an RNA, a QUANT-IT™ RIBOGREEN® RNA assay (Invitrogen Corporation Carlsbad, CA) can be used to evaluate the encapsulation of an RNA by the nanoparticle composition. The samples are diluted to a concentration of approximately […] in a TE buffer solution (10 mM Tris-HCl, 1 mM EDTA, pH 7.5). 50 μL of the diluted samples are transferred to a polystyrene 96 well plate and either 50 μL of TE buffer or 50 μL of a 2% Triton X-100 solution is added to the wells. The plate is incubated at a temperature of 37° C. for 15 minutes. The RIBOGREEN® reagent is diluted 1:100 in TE buffer, and 100 μL of this solution is added to each well. The fluorescence intensity can be measured using a fluorescence plate reader (Wallac Victor 1420 Multilabel Counter; Perkin Elmer, Waltham, MA) at an excitation wavelength of, for example, about 480 nm and an emission wavelength of, for example, about 520 nm. The fluorescence values of the reagent blank are subtracted from that of each of the samples and the percentage of free RNA is determined by dividing the fluorescence intensity of the intact sample (without addition of Triton X-100) by the fluorescence value of the disrupted sample (caused by the addition of Triton X-100).

[2] = Particle size and polydispersity index of nanoparticle compositions (Zetasizer Nano ZS); assay type: physicochemical; details: Table 1A; for Size (nm): lipid:DSPC:cholesterol:PEG-DMG 50:10:38.5:1.5 mol %
Description: A Zetasizer Nano ZS (Malvern Instruments Ltd, Malvern, Worcestershire, UK) can be used to determine the particle size, the polydispersity index (PDI) and the zeta potential of the nanoparticle compositions in 1×PBS in determining particle size and 15 mM PBS in determining zeta potential.

[3] = test system: luciferase (Luc) mRNA; assay: Luc expression in liver, lung, spleen and femur 6 hours after intravenous administration; assay type: in vivo; details: mice, 0.5 mpk; for Flux in the liver / Flux in the spleen: i.v., in words; for Total Flux Liver / Total Flux Lung / Total Flux Spleen: intravenous
Description: The efficacy of the nanoparticle compositions presented in Table 1A was further evaluated by measuring the expression of modified luciferase in the liver, lung, spleen, and femur upon administration of a given composition. Formulations were administered intravenously to mice (n=3) at a dosage of 0.5 mpk and bioluminescence measured after 6 hours. The standard MC3 formulation and a PBS control were also tested. […] Flux in the liver was lowest for compositions including Compounds 58, 59, 137, and 141. Flux in the spleen was highest for compositions including Compounds 4, 7, 33, 34, 48, 53, 108, 129, 130, and 148, and lowest for compositions including Compounds 9, 59, 124, and 141.
(§1) Whole body and ex vivo organ bioluminescent imaging of mice: CD-1 mice were injected 15 minutes prior to the imaging timepoint intraperitoneally (IP) with 200 μL Xenolight D-luciferin K+ salt, diluted in PBS just prior to use to a concentration of 15 mg/mL. Ex vivo imaging of organs was completed within 25 minutes of luciferin administration. All images were quantified by region of interest for total flux.

[4] = test system: luciferase (Luc) mRNA; assay: Luc expression, whole body bioluminescence after intravenous administration to mice; assay type: in vivo; details: for Fold increase in total body Luc Flux relative to MC3 at 6 h: Table 3A, i.v. administration; for Total Flux 3 hours / Total Flux 6 hours / Total Flux 24 hours / flux at all timepoints measured: mice, i.v., 0.5 mg/kg; for Total Flux 3 hours / Total Flux 6 hours / Total Flux 24 hours: Luc mRNA; for flux at all timepoints measured: 3, 6 and 24 hour, in words
Description: In order to monitor how effectively various nanoparticle compositions deliver therapeutic and/or prophylactics to targeted cells, different nanoparticle compositions including a particular therapeutic and/or prophylactic (for example, a modified or naturally occurring RNA such as an mRNA) are prepared and administered to rodent populations. Mice are intravenously, intramuscularly, intraarterially, or intratumorally administered a single dose including a nanoparticle composition with a formulation such as those provided in Example 3. In some instances, mice may be made to inhale doses. Dose sizes may range from 0.001 mg/kg to 10 mg/kg, where 10 mg/kg describes a dose including 10 mg of a therapeutic and/or prophylactic in a nanoparticle composition for each 1 kg of body mass of the mouse. A control composition including PBS may also be employed.
Upon administration of nanoparticle compositions to mice, dose delivery profiles, dose responses, and toxicity of particular formulations and doses thereof can be measured by enzyme-linked immunosorbent assays (ELISA), bioluminescent imaging, or other methods. For nanoparticle compositions including mRNA, time courses of protein expression can also be evaluated. Samples collected from the rodents for evaluation may include blood, sera, and tissue (for example, muscle tissue from the site of an intramuscular injection and internal tissue); sample collection may involve sacrifice of the animals.
The efficacy of the nanoparticle compositions presented in Table 1A was evaluated with a bioluminescence study. Formulations were administered intravenously to mice (n=6) at a dosage of 0.5 mg/kg (mpk) and bioluminescence measured at 3, 6, and 24 hour time points. The standard MC3 formulation and, in some instances, a control (e.g., a PBS control) were evaluated for comparison. […] In general, flux decreased as time progressed to less than 10% of the initial flux.
as §1

[5] = Apparent (surface) pKa of the LNP formulation (TNS assay); assay type: physicochemical; details: Table 1A
Description: Using sodium hydroxide (1 M) and hydrochloric acid (1 M), 21 unique buffers were prepared from the master buffer stock at pH values between about 3 and 12. Next, a stock of 300 μM 6-(p-Toluidino)-2-naphthalenesulfonic acid sodium salt (TNS reagent) in DMSO was prepared and the LNP was mixed with the desired formulation buffer at a concentration of 0.04 mg/mL mRNA. This assay has been validated in 1× PBS and 20 mM Tris w/8% sucrose buffer. The buffer solutions at various pH values were added to a 96-well plate in triplicate for each pH. To each well was added 3.26 μL of LNP sample at a mRNA concentration of 0.04 mg/mL and 2.0 μL of 300 μM TNS reagent solution. After careful mixing, the resulting fluorescence values were read for each plate to create a sigmoidal plot of the fluorescence values vs. buffer pH. The […] inflection point of this curve is the apparent pKa of the LNP formulation.

EE (%) [1]	PDI [2]	Size (nm) [2]	pKa [5]	Compound	Flux in the liver [3]	Flux in the spleen [3]	Total Flux Liver [3]	Total Flux Lung [3]	Total Flux Spleen [3]	Fold increase in total body Luc Flux relative to MC3 at 6 h [4]	Total Flux 3 hours [4]	Total Flux 6 hours [4]	Total Flux 24 hours [4]	flux at all timepoints measured [4]
0%	0.74	55 nm	4.802	CCCCCCCCCOC(=O)CCCCCCCN(CCCCCCCC(=O)OC(CCCCCCCC)CCCCCCCC)CCCC(F)(F)F [Compound 107]										
94.7%	0.11	71.6 nm	6.16	CCCCCCCCCOC(=O)CCCCCCCN(CCCCCCCC(=O)OC(CCCCCCCC)CCCCCCCC)CCCn1ccnn1 [Compound 179, Heptadecan-9-yl 8-((3-(1H-1,2,3-triazol-1-yl)propyl)(8-(nonyloxy)-8-oxooctyl)amino)octanoate]										
99.4%	0.14	63.3 nm	5.66	CCCCCCCCCOC(=O)CCCCCCCN(CCCCCCCC(=O)OC(CCCCCCCC)CCCCCCCC)CCCn1cnc2c(N)ncnc21 [Compound 116, Heptadecan-9-yl 8-((3-(6-amino-9H-purin-9-yl)propyl)(8-(nonyloxy)-8-oxooctyl)amino)octanoate]							3.13E+07	3.86E+07		
88.9%	0.12	78.7 nm	6.17	CCCCCCCCCOC(=O)CCCCCCCN(CCCCCCCC(=O)OC(CCCCCCCC)CCCCCCCC)CCCNC(=O)OC [Compound 181, Heptadecan-9-yl 8-((3-((methoxycarbonyl)amino)propyl)(8-(nonyloxy)-8-oxooctyl)amino)octanoate]										

Second part, the molecule before the results:

Compound	EE (%) [1]	PDI [2]	Size (nm) [2]	pKa [5]	Flux in the liver [3]	Flux in the spleen [3]	Total Flux Liver [3]	Total Flux Lung [3]	Total Flux Spleen [3]	Fold increase in total body Luc Flux relative to MC3 at 6 h [4]	Total Flux 3 hours [4]	Total Flux 6 hours [4]	Total Flux 24 hours [4]	flux at all timepoints measured [4]
CCCCCCCCCOC(=O)CCCCCCCN(CCO)CCCCCCCC(=O)OC(CCCCC)CCCCCCCC (stereo not shown) [Compound 33, nonyl 8-((2-hydroxyethyl)(8-oxo-8-(tetradecan-6-yloxy)octyl)amino) octanoate]	95.66%	0.13	107.3 nm	6.80	highest	highest	1.78E+10	2.92E+07	3.77E+08	2.74	6.53E+10	1.20E+11	3.71E+09	
CCCCCCCCCOC(=O)CCCCCCCN(CCCCCCCC(=O)OC(CCCCCCCC)CCCCCCCC)CCCNC(=O)CO [Compound 198, Heptadecan-9-yl 8-((3-(2-hydroxyacetamido)propyl)(8-(nonyloxy)-8-oxooctyl)amino)octanoate]	99.5%	0.24	84.2 nm	7.62										
CCCCCCCCCOC(=O)CCCCCCCN(CCO)CCCCCCCC(=O)OC(CCC)CCC [Compound 58, heptan-4-yl 8-((2-hydroxyethyl)(8-(nonyloxy)-8-oxooctyl)amino) octanoate]	92.54%	0.14	130.8 nm		lowest		8.71E+04	1.21E+04	2.38E+05	0.00007	5.69E+05	7.60E+05	3.64E+05	significantly lower flux
CCCCCCCCCOC(=O)CCCCCCCN(CCO)CCCCCCCC(=O)OC(CC)CC [Compound 59, nonyl 8-((2-hydroxyethyl)(8-oxo-8-(pentan-3-yloxy)octyl)amino) octanoate]	94.44%	0.24	237.0 nm		lowest	lowest	2.87E+05	4.41E+04	9.68E+04	0.00003	2.75E+05	2.79E+05	1.45E+05	significantly lower flux
CCCCCCCCCOC(=O)CCCCCCCN(CCO)CCCCCCCC(=O)Oc1ccc(CCCCC)cc1 [Compound 119, Nonyl 8-((2-hydroxyethyl)(8-oxo-8-(4-pentylphenoxy)octyl)amino)octanoate]	98.1%	0.24	60.8 nm	5.29							1.02E+07	3.74E+07		
CCCCCCCCCOC(=O)CCCCCCCN(CCCCCCCC(=O)OC(CCCCCCCC)CCCCCCCC)Cc1ccccc1 [Compound 94, Heptadecan-9-yl 8-(benzyl(8-(nonyloxy)-8-oxooctyl)amino)octanoate]	0%	0.24	62.4 nm	4.43										
